Assays:
[1] = target: T1, CFTR (F508del/MF-HBE cells) (Homo sapiens, UniProt P13569, DEL508-508); experiment: Ussing chamber assay of CFTR-mediated short-circuit currents, Assay A (0.1 μM to 25 μM, 6 concentrations); type: cell-based; details: with 33 nM potentiator and 18 μM Tezacaftor, 20% human serum; for Emax: 18-24 hours, read-out: A Max activity (%)
T1 construct: human bronchial epithelial (HBE) cells derived from CF subjects heterozygous for F508del and a minimal function CFTR mutation (F508del/MF-HBE); endogenous in cells; host or cells: Primary human bronchial epithelial cells from CF subjects (F508del/MF genotype), differentiated at an air-liquid interface
T1 sequence (P13569 with tags, fused parts or gaps DEL508-508): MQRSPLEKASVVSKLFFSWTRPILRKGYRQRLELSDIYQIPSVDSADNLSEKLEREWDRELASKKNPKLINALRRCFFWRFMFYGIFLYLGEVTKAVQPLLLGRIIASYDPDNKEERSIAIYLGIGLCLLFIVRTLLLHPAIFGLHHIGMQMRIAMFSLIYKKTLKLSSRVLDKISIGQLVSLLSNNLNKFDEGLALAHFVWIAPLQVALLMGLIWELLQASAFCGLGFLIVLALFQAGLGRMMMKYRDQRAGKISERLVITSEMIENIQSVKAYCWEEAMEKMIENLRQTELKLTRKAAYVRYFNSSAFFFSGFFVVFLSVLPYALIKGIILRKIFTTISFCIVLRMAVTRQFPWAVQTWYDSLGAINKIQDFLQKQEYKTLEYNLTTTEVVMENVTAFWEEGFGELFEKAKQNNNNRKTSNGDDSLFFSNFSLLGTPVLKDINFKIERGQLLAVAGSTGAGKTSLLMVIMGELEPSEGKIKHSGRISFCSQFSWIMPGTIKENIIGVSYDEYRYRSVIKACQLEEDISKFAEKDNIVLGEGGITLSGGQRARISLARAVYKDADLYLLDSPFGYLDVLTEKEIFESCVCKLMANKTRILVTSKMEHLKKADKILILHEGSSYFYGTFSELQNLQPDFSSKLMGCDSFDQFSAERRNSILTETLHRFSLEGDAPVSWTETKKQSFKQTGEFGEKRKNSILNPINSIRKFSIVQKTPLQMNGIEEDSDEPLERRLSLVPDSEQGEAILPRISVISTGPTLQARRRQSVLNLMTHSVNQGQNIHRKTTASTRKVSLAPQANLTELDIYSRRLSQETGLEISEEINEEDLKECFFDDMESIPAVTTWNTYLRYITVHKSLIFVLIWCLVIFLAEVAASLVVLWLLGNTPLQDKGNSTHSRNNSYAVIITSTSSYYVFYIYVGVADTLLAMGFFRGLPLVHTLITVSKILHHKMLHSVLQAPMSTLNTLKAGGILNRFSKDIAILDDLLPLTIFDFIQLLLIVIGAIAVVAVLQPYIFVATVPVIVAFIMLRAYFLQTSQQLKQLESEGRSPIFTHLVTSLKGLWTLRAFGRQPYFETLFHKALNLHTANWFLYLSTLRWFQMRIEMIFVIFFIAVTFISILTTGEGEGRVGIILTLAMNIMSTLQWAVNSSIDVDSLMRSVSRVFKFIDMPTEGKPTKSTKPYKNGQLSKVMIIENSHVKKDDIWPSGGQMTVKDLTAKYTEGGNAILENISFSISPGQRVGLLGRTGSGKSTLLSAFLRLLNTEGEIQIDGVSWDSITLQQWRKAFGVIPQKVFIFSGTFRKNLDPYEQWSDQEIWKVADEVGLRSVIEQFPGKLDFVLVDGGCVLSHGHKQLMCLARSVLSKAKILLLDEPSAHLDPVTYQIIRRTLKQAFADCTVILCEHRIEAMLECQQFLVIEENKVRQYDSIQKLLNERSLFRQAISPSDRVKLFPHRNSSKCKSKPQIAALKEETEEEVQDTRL
Procedure: (§1) Ussing chamber experiments were performed using human bronchial epithelial (HBE) cells derived from CF subjects heterozygous for F508del and a minimal function CFTR mutation (F508del/MF-HBE) and cultured as previously described (Neuberger T, Burton B, Clark H, Van Goor F Methods Mol Biol 2011:741:39-54). After four days the apical media was removed, and the cells were grown at an air liquid interface for >14 days prior to use.
(§2) To isolate the CFTR-mediated short-circuit (ISC) current, F508del/MF-HBE grown on Costar® Snapwell™ cell culture inserts were mounted in an Ussing chamber and the transepithelial ISC was measured under voltage-clamp recording conditions (Vhold=0 mV) at 37° C. The basolateral solution contained (in mM) 145 NaCl, 0.83 K2HPO4, 3.3 KH2PO4, 1.2 MgCl2, 1.2 CaCl2, 10 Glucose, 10 HEPES (pH adjusted to 7.4 with NaOH) and the apical solution contained (in mM) 145 NaGluconate, 1.2 MgCl2, 1.2 CaCl2, 10 glucose, 10 HEPES (pH adjusted to 7.4 with NaOH) and 30 μM amiloride to block the epithelial sodium channel. Forskolin (20 μM) was added to the apical surface to activate CFTR, followed by apical addition of a CFTR inhibitor cocktail consisting of BPO, GlyH-101, and CFTR inhibitor 172 (each at 20 μM final assay concentration) to specifically isolate CFTR currents. The CFTR-mediated ISC (μA/cm^2) for each condition was determined from the peak forskolin response to the steady-state current following inhibition.
(§3) The activity of the CFTR corrector compounds on the CFTR-mediated ISC was determined in Ussing chamber studies as described above. The F508del/MF-HBE cell cultures were either incubated with the corrector compounds at a range of concentrations in combination with 33 nM (6R,12R)-17-amino-12-methyl-6,15-bis(trifluoromethyl)-13,19-dioxa-3,4,18-triazatricyclo[12.3.1.12,5]nonadeca-1(18),2,4,14,16-pentaen-6-ol and 18 μM Tezacaftor or were incubated with the corrector compounds at a single fixed concentration of 1 μM in combination with 44 nM (6R,12R)-17-amino-12-methyl-6,15-bis(trifluoromethyl)-13,19-dioxa-3,4,18-triazatricyclo[12.3.1.12,5]nonadeca-1(18),2,4,14,16-pentaen-6-ol and 18 μM Tezacaftor for 18-24 hours at 37° C. and in the presence of 20% human serum. The concentration of corrector compounds with 44 nM or 33 nM (6R,12R)-17-amino-12-methyl-6,15-bis(trifluoromethyl)-13,19-dioxa-3,4,18-triazatricyclo[12.3.1.12,5]nonadeca-1(18),2,4,14,16-pentaen-6-ol and 18 μM Tezacaftor during the 18-24 hours incubations was kept constant throughout the Ussing chamber measurement of the CFTR-mediated ISC to ensure compounds were present throughout the entire experiment. The efficacy and potency of the putative F508del correctors was compared to that of the known Vertex corrector, (14S)-8-[3-(2-{Dispiro[2.0.2.1]heptan-7-yl}ethoxy)-1H-pyrazol-1-yl]-12,12-dimethyl-2λ^6-thia-3,9,11,18,23-pentaazatetracyclo[17.3.1.111,14.05,10]tetracosa-1(22),5,7,9,19(23),20-hexaene-2,2,4-trione, in combination with 18 μM Tezacaftor and 1 μM Ivacaftor.
(§4) • Assay A: 0.1 μM to 25 μM, 6 concentrations • Assay B: 0.00001 μM to 25 μM, 12 concentrations • Assay C: 0.026 μM to 25 μM, 6 concentrations • Assay D: Activity at single concentration of 1 μM

[2] = target: T1, CFTR (F508del/MF-HBE cells); experiment: Ussing chamber assay of CFTR-mediated short-circuit currents, Assay B (0.00001 μM to 25 μM, 12 concentrations); type: cell-based; details: with 33 nM potentiator and 18 μM Tezacaftor, 20% human serum; for Emax: 18-24 hours, read-out: B Max activity (%)
Procedure: as §1, §2, §3, §4

Compound | Emax [1] [%] | EC50 [1] [nM] | Emax [2] [%] | EC50 [2] [nM]
Cc1cccc(C)c1-c1cc2nc(n1)NS(=O)(=O)c1cccc(c1)C(=O)N(Cc1cnc3cc(C(C)C)n(C)c3n1)[C@H](CC13CC(C1)C3)CO2 [Compound I-40] | > 60 | < 1000 | – | –
Cc1cccc(C)c1-c1cc2nc(n1)NS(=O)(=O)c1cccc(c1)C(=O)N(Cc1cnc3cc(C(C)C)n(C)c3n1)[C@H](CCC1(C)CCC1)CO2 [Compound I-41] | > 60 | < 1000 | – | –
Cc1cccc(C)c1-c1cc2nc(n1)NS(=O)(=O)c1cccc(c1)C(=O)N(Cc1cnc3oc(C4CC4)cc3n1)[C@H](CC1CCCCC1)CO2 [Compound I-42] | > 60 | < 1000 | – | –
Cc1cccc(C)c1-c1cc2nc(n1)NS(=O)(=O)c1cccc(c1)C(=O)N(Cc1cnc3oc(C4CC4)cc3n1)[C@H](CCC1(C)CCC1)CO2 [Compound I-47] | > 60 | < 1000 | – | –
Cc1cccc(C)c1-c1cc2nc(n1)NS(=O)(=O)c1cccc(c1)C(=O)N(Cc1cnc3oc(C4CC4)cc3n1)[C@H](CC(C)(C)F)CO2 [Compound I-51] | > 60 | < 1000 | – | –
Cc1cccc(C)c1-c1cc2nc(n1)NS(=O)(=O)c1cccc(c1)C(=O)N(Cc1cnc3oc(C(C)C)c(C#N)c3n1)[C@H](CC1(C)CC1)CO2 [Compound I-53, 2-[[(11R)-6-(2,6-dimethylphenyl)-11-[(1-methylcyclopropyl)methyl]-2,2,13-trioxo-9-oxa-2λ^6-thia-3,5,12,19-tetrazatricyclo[12.3.1.14,8]nonadeca-1(18),4(19),5,7,14,16-hexaen-12-yl]methyl]-6-isopropyl-furo[2,3-b]pyrazine-7-carbonitrile] | > 60 | < 1000 | – | –
Cc1cccc(C)c1-c1cc2nc(n1)NS(=O)(=O)c1cccc(c1)C(=O)N(Cc1cnc3oc(C(C)C)cc3n1)[C@H](CC1(C(F)(F)F)CC1)CO2 [Compound I-54] | > 60 | < 1000 | – | –
Cc1cccc(C)c1-c1cc2nc(n1)NS(=O)(=O)c1cccc(c1)C(=O)N(Cc1cnc3oc(C4CC4)cc3n1)[C@H](CC1CCCC1)CO2 [Compound I-61] | – | – | > 60 | 3000 to 30000
Cc1cccc(C)c1-c1cc2nc(n1)NS(=O)(=O)c1cccc(c1)C(=O)N(Cc1nc3cc(C(C)C)oc3cc1F)[C@H](CC(C)(C)C)CO2 [Compound I-63] | > 60 | < 1000 | – | –
Cc1cccc(C)c1-c1cc2nc(n1)NS(=O)(=O)c1cccc(c1)C(=O)N(Cc1cnc3oc(C(C)C)c(C)c3n1)[C@H](CC1CCCC1)CO2 [Compound I-64] | > 60 | < 1000 | – | –
Cc1cccc(C)c1-c1cc2nc(n1)NS(=O)(=O)c1cccc(c1)C(=O)N(Cc1nc3c(cc1F)nc(C(C)C)n3C)[C@H](CC(C)(C)C)CO2 [Compound I-69] | > 60 | < 1000 | – | –
Cc1cccc(C)c1-c1cc2nc(n1)NS(=O)(=O)c1cccc(c1)C(=O)N(Cc1cnc3nc(C(C)C)n(C)c3n1)[C@H](CC1(C)CC1)CO2 [Compound I-75] | > 60 | < 1000 | – | –
Cc1cccc(C)c1-c1cc2nc(n1)NS(=O)(=O)c1cccc(c1)C(=O)N(Cc1nc3cc(C(C)C)oc3cc1F)[C@H](CC1(C)CC1)CO2 [Compound I-78] | > 60 | < 1000 | – | –
Cc1cccc(C)c1-c1cc2nc(n1)NS(=O)(=O)c1cccc(c1)C(=O)N(Cc1nc3c(cc1F)cc(C(C)C)n3C)[C@H](CC1(C)CC1)CO2 [Compound I-80] | > 60 | < 1000 | – | –
Cc1cccc(C)c1-c1cc2nc(n1)NS(=O)(=O)c1cccc(c1)C(=O)N(Cc1cnc3oc(C(C)C)c(C#N)c3n1)[C@H](CC13CC(C1)C3)CO2 [Compound I-85] | > 60 | < 1000 | – | –
Cc1cccc(C)c1-c1cc2nc(n1)NS(=O)(=O)c1cccc(c1)C(=O)N(Cc1cnc3nc(C(C)C)n(C)c3n1)[C@H](COC(C)C)CO2 [Compound I-90] | > 60 | < 1000 | – | –

Compound | Emax [1] [%] | EC50 [1] [nM] | Emax [2] [%] | EC50 [2] [nM]
Cc1cccc(C)c1-c1cc2nc(n1)NS(=O)(=O)c1cccc(c1)C(=O)N(Cc1cnc3oc(C(C)C)c(C#N)c3n1)[C@H](COC(C)C)CO2 [Compound I-91] | > 60 | < 1000 | – | –
Cc1cccc(C)c1-c1cc2nc(n1)NS(=O)(=O)c1cccc(c1)C(=O)N(Cc1cnc3cc(C(C)C)n(C)c3n1)[C@H](CC1C3(CC3)C13CC3)CO2 [Compound I-100] | > 60 | < 1000 | – | –
Cc1cccc(C)c1-c1cc2nc(n1)NS(=O)(=O)c1cccc(c1)C(=O)N(Cc1cnc3oc(C(C)C)cc3n1)[C@H](CC1C3(CC3)C13CC3)CO2 [Compound I-101] | > 60 | < 1000 | – | –
Cc1cccc(C)c1-c1cc2nc(n1)NS(=O)(=O)c1cccc(c1)C(=O)N(Cc1cnc3oc(C4CC4)cc3n1)[C@H](CC1C3(CC3)C13CC3)CO2 [Compound I-102] | > 60 | < 1000 | – | –
Cc1cccc(C)c1-c1cc2nc(n1)NS(=O)(=O)c1cccc(c1)C(=O)N(Cc1cnc3cc(C(C)C)n(C)c3n1)[C@H](CCC(C)(C)F)CO2 [Compound I-106] | > 60 | < 1000 | – | –
Cc1cccc(C)c1-c1cc2nc(n1)NS(=O)(=O)c1cccc(c1)C(=O)N(Cc1cnc3oc(C4CC4)cc3n1)[C@H](CCC(C)(C)F)CO2 [Compound I-107] | > 60 | < 1000 | – | –
Cc1cccc(C)c1-c1cc2nc(n1)NS(=O)(=O)c1cccc(c1)C(=O)N(Cc1cnc3oc(C4CC4)cc3n1)[C@H](COC1CCCC1)CO2 [Compound I-118] | – | – | > 60 | 3000 to 30000
Cc1cccc(C)c1-c1cc2nc(n1)NS(=O)(=O)c1cccc(c1)C(=O)N(Cc1cnc3oc(C4CC4)cc3n1)[C@H](CCC(C)C)CO2 [Compound I-130] | – | – | > 60 | 3000 to 30000
Cc1cccc(C)c1-c1cc2nc(n1)NS(=O)(=O)c1cccc(c1)C(=O)N(Cc1cnc3oc(C4CCC4)cc3n1)[C@H](COC(C)C)CO2 [Compound I-138] | – | – | > 60 | 3000 to 30000
Cc1cccc(C)c1-c1cc2nc(n1)NS(=O)(=O)c1cccc(c1)C(=O)N(C(=O)c1cncc(N(C)C3CCC3)n1)[C@H](CC(C)(C)C)CO2 [II-32] | > 60 | < 1000 | – | –
Cc1cccc(C)c1-c1cc2nc(n1)NS(=O)(=O)c1cccc(c1)CN(C(=O)c1cncc(N(C)C3CCC3)n1)[C@H](CC(C)(C)C)CO2 [II-36] | 30 to 60 | 1000 to 3000 | – | –
Cc1cccc(C)c1-c1cc2nc(n1)NS(=O)(=O)c1cccc(c1)C(=O)N(Cc1cn3ccc(C(C)C)cc3n1)[C@H](CC(C)(C)C)CO2 [III-1, (11R)-6-(2,6-dimethylphenyl)-11-(2,2-dimethylpropyl)-12-[(7-isopropylimidazo[1,2-a]pyridin-2-yl)methyl]-2,2-dioxo-9-oxa-2λ^6-thia-3,5,12,19-tetrazatricyclo[12.3.1.14,8]nonadeca-1(18),4(19),5,7,14,16-hexaen-13-one] | > 60 | < 1000 | – | –
Cc1cccc(C)c1-c1cc2nc(n1)NS(=O)(=O)c1cccc(c1)C(=O)N(Cc1nc3c(C(C)C)cccc3o1)[C@H](CC(C)(C)C)CO2 [III-7] | > 60 | < 1000 | – | –
Cc1cccc(C)c1-c1cc2nc(n1)NS(=O)(=O)c1cccc(c1)C(=O)N(Cc1cn3cccc(C#N)c3n1)[C@H](CC(C)(C)C)CO2 [III-10] | > 60 | < 1000 | – | –
Cc1cccc(C)c1-c1cc2nc(n1)NS(=O)(=O)c1cccc(c1)C(=O)N(Cc1cn3cccc(N)c3n1)[C@H](CC(C)(C)C)CO2 [III-12] | > 60 | < 1000 | – | –

From patent US20250340574A1, “MODULATORS OF CYSTIC FIBROSIS TRANSMEMBRANE CONDUCTANCE REGULATOR” (Vertex Pharmaceuticals Incorporated, priority 2022, published 2025)
